From patent US10131652B2, “Pyrimidinyloxy benzene derivatives as herbicides” (E. I. DU PONT DE NEMOURS AND COMPANY, priority 2014, dated 2018)

Legend:
Assay type in all cases: in vivo
[1] = test system: small-flower umbrella sedge (Cyperus difformis); assay: Test C flooded paddy test plant response; settings: Flood, 250 g ai/ha; scale of 0 to 100 where 0 is no effect and 100 is complete control; 13 to 15 days
Procedure, shortened: (§1)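 Plants grown to the 2-leaf stage; pots flooded to 3 cm above soil, test compounds applied directly to paddy water, depth maintained throughout. Greenhouse for 13 to 15 days, then visual rating versus controls on a 0–100 scale (0 no effect, 100 complete control).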

[2] = test system: barnyardgrass (Echinochloa crus-galli); assay: Test C flooded paddy test plant response; settings: Flood, 250 g ai/ha; scale of 0 to 100 where 0 is no effect and 100 is complete control; 13 to 15 days
Procedure, shortened: as §1

[3] = test system: ducksalad (Heteranthera limosa); assay: Test C flooded paddy test plant response; settings: Flood, 250 g ai/ha; scale of 0 to 100 where 0 is no effect and 100 is complete control; 13 to 15 days
Procedure, shortened: as §1

rice (Oryza sativa) = assay: Test C flooded paddy test plant response; settings: Flood, 250 g ai/ha; scale of 0 to 100 where 0 is no effect and 100 is complete control; 13 to 15 days
Procedure, shortened: as §1

corn (Zea mays) = assay: Test B pre-/postemergence plant response
Procedure, shortened: (§2)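 Greenhouse pots, loam/sand soil; compound formulated with surfactant in non-phytotoxic solvent. Preemergence soil spray and postemergence spray at 1–2 leaf stage run simultaneously. Visual injury, 0–100, about 10 days post-treatment.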

[4] = test system: pigweed (Amaranthus retroflexus); assay: Test B pre-/postemergence plant response
Procedure, shortened: as §2

[5] = test system: barnyardgrass (Echinochloa crus-galli); assay: Test B pre-/postemergence plant response
Procedure, shortened: as §2

[6] = test system: giant foxtail (Setaria faberii); assay: Test B pre-/postemergence plant response
Procedure, shortened: as §2

[7] = test system: wheat (Triticum aestivum); assay: Test B pre-/postemergence plant response
Procedure, shortened: as §2

[8] = test system: johnsongrass (Sorghum halepense); assay: Test D pre-/postemergence plant response; settings: Postemergence; for Plant response rating (scale 0 to 100), Johnsongrass: 16 g ai/ha; for Johnsongrass plant response rating: 31 g ai/ha, scale 0 to 100 (0 no effect, 100 complete control); for Plant response rating, Johnsongrass: scale 0 to 100, 0 no effect, 100 complete control
Procedure, shortened: (§3)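 Sown seed (loam/sand soil) treated preemergence; emerged plants, 1- to 4-leaf stage and 2 to 18 cm, treated postemergence in peat/vermiculite medium. Greenhouse incubation 13–15 d. Endpoint: visual 0–100 rating versus untreated.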

[9] = test system: blackgrass (Alopecurus myosuroides); assay: Test D pre-/postemergence plant response; settings: Postemergence; for Plant response rating (scale 0 to 100), Blackgrass: 16 g ai/ha; for Blackgrass plant response rating: 31 g ai/ha, scale 0 to 100 (0 no effect, 100 complete control); for Plant response rating, Blackgrass: scale 0 to 100, 0 no effect, 100 complete control
Procedure, shortened: as §3

[10] = test system: winter wheat (Triticum aestivum); assay: Test D pre-/postemergence plant response; settings: Postemergence; for Plant response rating (scale 0 to 100), Wheat: 16 g ai/ha; for Plant response rating, Wheat: 125 g ai/ha
Procedure, shortened: as §3

[11] = test system: lambsquarters (Chenopodium album); assay: Test D pre-/postemergence plant response; settings: Postemergence; for Plant response rating (scale 0 to 100), Lambsquarters: 16 g ai/ha; for Plant response rating, Lambsquarters: 125 g ai/ha
Procedure, shortened: as §3

[12] = test system: velvetleaf (Abutilon theophrasti); assay: Test D pre-/postemergence plant response; settings: Postemergence; for Plant response rating (scale 0 to 100), Velvetleaf: 16 g ai/ha; for Plant response rating, Velvetleaf: 125 g ai/ha
Procedure, shortened: as §3

[13] = test system: large (Lg) crabgrass (Digitaria sanguinalis); assay: Test D pre-/postemergence plant response; settings: Postemergence; for Plant response rating (scale 0 to 100), Crabgrass, Large: 16 g ai/ha; for Crabgrass, Large plant response rating: 31 g ai/ha, scale 0 to 100 (0 no effect, 100 complete control); for Plant response rating, Crabgrass, Large: scale 0 to 100, 0 no effect, 100 complete control
Procedure, shortened: as §3

[14] = test system: galium (catchweed bedstraw, Galium aparine); assay: Test D pre-/postemergence plant response; settings: Postemergence; for Plant response rating (scale 0 to 100), Galium: 16 g ai/ha; for Galium plant response rating: 31 g ai/ha, scale 0 to 100 (0 no effect, 100 complete control); for Plant response rating, Galium: scale 0 to 100, 0 no effect, 100 complete control
Procedure, shortened: as §3

[15] = 125 g ai/ha, postemergence, 0 to 100 scale, 0 no effect, 100 complete control
[16] = Postemergence, 31 g ai/ha, 0 to 100 scale (0 no effect, 100 complete control)
[17] = 31 g ai/ha, Preemergence, 0 to 100 scale where 0 is no effect and 100 is complete control
[18] = Preemergence, 125 g ai/ha, 0 to 100 scale (0 no effect, 100 complete control)
[19] = 31 g ai/ha, scale 0 to 100 (0 no effect, 100 complete control)
[20] = 62 g ai/ha, scale 0 to 100, 0 no effect, 100 complete control
[21] = scale 0 to 100, 0 no effect, 100 complete control

`FCc1cc(-c2ccccc2Oc2ncc(Cl)cn2)on1` [Compound 224] was tested, and the “Sedge, Umbrella plant response rating” value [1] was 65, the “Barnyardgrass plant response rating” value [2] was 0 and the “Ducksalad plant response rating” value [3] was 70. The “Rice plant response rating” value (rice (Oryza sativa)) was 0, the “Plant response rating, Corn” value (corn (Zea mays); [15]) was 20 and the “Plant response rating, Corn” value (corn (Zea mays); [16]) was 0. The “Plant response rating, Pigweed” value [4, 17] was 90, the “Plant response rating, Pigweed” value [4, 15] was 100 and the “Plant response rating, Pigweed” value [4, 16] was 70. For the same compound, the “Pigweed plant response rating” value [4, 18] was 100, the “Plant response rating, Barnyardgrass” value [5, 17] was 10 and the “Plant response rating, Barnyardgrass” value [5, 15] was 50. For the same compound, the “Plant response rating, Barnyardgrass” value [5, 16] was 30, the “Barnyardgrass plant response rating” value [5, 18] was 50 and the “Plant response rating, Foxtail, Giant” value [6, 17] was 40. For the same compound, the “Plant response rating, Foxtail, Giant” value [6, 15] was 50, the “Plant response rating, Foxtail, Giant” value [6, 16] was 20 and the “Foxtail, Giant plant response rating” value [6, 18] was 90. The “Plant response rating, Wheat” value [7, 15] was 0, the “Plant response rating, Wheat” value [7, 16] was 0 and the “Plant response rating (scale 0 to 100), Johnsongrass” value [8] was 5. The “Johnsongrass plant response rating” value [8] was 5, the “Plant response rating, Johnsongrass” value ([8]; 62 g ai/ha) was 5 and the “Plant response rating, Johnsongrass” value ([8]; 125 g ai/ha) was 5. The “Plant response rating (scale 0 to 100), Blackgrass” value [9] was 0, the “Blackgrass plant response rating” value [9] was 0 and the “Plant response rating, Blackgrass” value ([9]; 62 g ai/ha) was 5. The “Plant response rating, Blackgrass” value ([9]; 125 g ai/ha) was 0, the “Plant response rating (scale 0 to 100), Wheat” value [10] was 0 and the “Wheat plant response rating” value [10, 19] was 0. For the same compound, the “Wheat plant response rating” value [10, 20] was 0, the “Plant response rating, Wheat” value [10, 21] was 15 and the “Plant response rating (scale 0 to 100), Lambsquarters” value [11] was 55. For the same compound, the “Lambsquarters plant response rating” value [11, 19] was 75, the “Lambsquarters plant response rating” value [11, 20] was 80 and the “Plant response rating, Lambsquarters” value [11, 21] was 85. The “Plant response rating (scale 0 to 100), Velvetleaf” value [12] was 10, the “Velvetleaf plant response rating” value [12, 19] was 25 and the “Velvetleaf plant response rating” value [12, 20] was 30. The “Plant response rating, Velvetleaf” value [12, 21] was 60, the “Plant response rating (scale 0 to 100), Crabgrass, Large” value [13] was 5 and the “Crabgrass, Large plant response rating” value [13] was 5. The “Plant response rating, Crabgrass, Large” value ([13]; 62 g ai/ha) was 10, the “Plant response rating, Crabgrass, Large” value ([13]; 125 g ai/ha) was 10 and the “Plant response rating (scale 0 to 100), Galium” value [14] was 40. For the same compound, the “Galium plant response rating” value [14] was 50, the “Plant response rating, Galium” value ([14]; 62 g ai/ha) was 60 and the “Plant response rating, Galium” value ([14]; 125 g ai/ha) was 60.

With `Fc1cccc(Oc2ncc(Cl)cn2)c1-c1cc(C(F)(F)F)no1` [Compound 228] the “Sedge, Umbrella plant response rating” value [1] was 90, the “Barnyardgrass plant response rating” value [2] was 40 and the “Ducksalad plant response rating” value [3] was 85. The “Rice plant response rating” value (rice (Oryza sativa)) was 0, the “Plant response rating, Corn” value (corn (Zea mays); [15]) was 30 and the “Plant response rating, Corn” value (corn (Zea mays); [16]) was 20. For the same compound, the “Plant response rating, Pigweed” value [4, 17] was 100, the “Plant response rating, Pigweed” value [4, 15] was 100 and the “Plant response rating, Pigweed” value [4, 16] was 100. For the same compound, the “Pigweed plant response rating” value [4, 18] was 100, the “Plant response rating, Barnyardgrass” value [5, 17] was 50 and the “Plant response rating, Barnyardgrass” value [5, 15] was 70. For the same compound, the “Plant response rating, Barnyardgrass” value [5, 16] was 30, the “Barnyardgrass plant response rating” value [5, 18] was 100 and the “Plant response rating, Foxtail, Giant” value [6, 17] was 90. For the same compound, the “Plant response rating, Foxtail, Giant” value [6, 15] was 90, the “Plant response rating, Foxtail, Giant” value [6, 16] was 40 and the “Foxtail, Giant plant response rating” value [6, 18] was 100. For the same compound, the “Plant response rating, Wheat” value [7, 15] was 50, the “Plant response rating, Wheat” value [7, 16] was 0 and the “Plant response rating (scale 0 to 100), Johnsongrass” value [8] was 10. For the same compound, the “Johnsongrass plant response rating” value [8] was 10, the “Plant response rating, Johnsongrass” value ([8]; 62 g ai/ha) was 25 and the “Plant response rating, Johnsongrass” value ([8]; 125 g ai/ha) was 60. The “Plant response rating (scale 0 to 100), Blackgrass” value [9] was 15, the “Blackgrass plant response rating” value [9] was 15 and the “Plant response rating, Blackgrass” value ([9]; 62 g ai/ha) was 25. For the same compound, the “Plant response rating, Blackgrass” value ([9]; 125 g ai/ha) was 35, the “Plant response rating (scale 0 to 100), Wheat” value [10] was 0 and the “Wheat plant response rating” value [10, 19] was 5. For the same compound, the “Wheat plant response rating” value [10, 20] was 10, the “Plant response rating, Wheat” value [10, 21] was 10 and the “Plant response rating (scale 0 to 100), Lambsquarters” value [11] was 85. The “Lambsquarters plant response rating” value [11, 19] was 85, the “Lambsquarters plant response rating” value [11, 20] was 90 and the “Plant response rating, Lambsquarters” value [11, 21] was 95. The “Plant response rating (scale 0 to 100), Velvetleaf” value [12] was 35, the “Velvetleaf plant response rating” value [12, 19] was 40 and the “Velvetleaf plant response rating” value [12, 20] was 65. For the same compound, the “Plant response rating, Velvetleaf” value [12, 21] was 80, the “Plant response rating (scale 0 to 100), Crabgrass, Large” value [13] was 15 and the “Crabgrass, Large plant response rating” value [13] was 20. For the same compound, the “Plant response rating, Crabgrass, Large” value ([13]; 62 g ai/ha) was 35, the “Plant response rating, Crabgrass, Large” value ([13]; 125 g ai/ha) was 45 and the “Plant response rating (scale 0 to 100), Galium” value [14] was 85. For the same compound, the “Galium plant response rating” value [14] was 98, the “Plant response rating, Galium” value ([14]; 62 g ai/ha) was 98 and the “Plant response rating, Galium” value ([14]; 125 g ai/ha) was 100.
